In brackets after ≈: the same amount, converted by molar mass. Like-named read-outs stand apart in the source and are kept apart here.
Tests used:
[1] = tested on: PM H+-ATPase in spinach plasma membrane vesicles; assay: Proton pumping assay (ACMA fluorescence quenching) in spinach plasma membrane vesicles; format: biochemical, Spinacia oleracea; settings: 5–20 μM
Protocol: Baby spinach (Spinacia oleracea) leaves (50 g) were cut into small pieces and homogenized. Subsequently plasma membranes were isolated by two-phase partitioning according to [58]. Plasma membranes were collected and homogenized in the phase buffer containing 330 mM sucrose, 5 mM potassium phosphate pH 7.8, 2 mM KCl, 0.1 mM EDTA, and 1 mM DTT and stored at—80°C.
Inside-out vesicles were created from spinach plasma membranes by adding the detergent Brij-58 to the buffer. Proton transport into the vesicles was determined as described by monitoring fluorescence quenching (excitation at 412 nm, emission at 480 nm) of 9-amino-6-chloro-2-methoxyacridine (ACMA). The reaction medium contained 20 mM MOPS-KOH, pH 7.0, 40 mM K2SO4, 25 mM KNO3, 2 mM ATP, 1 μM ACMA, 60 nM valinomycin and 0.05% (w/v) Brij-58. Proton pumping reactions were started by the addition of MgSO4 to a final concentration of 2 mM, and the proton gradient was collapsed by the addition of 10 μM nigericin.

[2] = tested on: S. cerevisiae RS-72 expressing Pma1p; assay: Drop test, yeast RS-72 expressing Pma1p; format: cell-based; settings: Saccharomyces cerevisiae, 72 h; no visible growth after 3 days at 30°C
Source text: (§1) The S. cerevisiae strain RS-72 (MATa ade1-100 his4-519 leu2-3, 112) was transformed according to the lithium acetate/single-stranded carrier DNA/polyethylene glycol method, and cultured essentially as described previously. In RS-72, the promoter of the endogenous yeast PM H^+-ATPase PMA1 gene was replaced by the galactose-dependent GAL1 promoter. This strain grew in media containing galactose, whereas growth in glucose-based medium requires the complementation of the yeast PM H^+-ATPase with a functional PM H^+-ATPase expressed from a plasmid. A 2-micron yeast expression vector was used for expression of different versions of the Arabidopsis thaliana PM H^+-ATPase AHA2 (pMP 1625); a 92-amino acid C-terminal truncated mutation, aha2∆92 (pMP 132); or the wild-type S. cerevisiae PM H^+-ATPase PMA1 (pMP 400) placed under the control of the PMA1 promoter. The use of RS-72 allows for purification of microsomes with a very low endogenous ATPase activity compared to RS-72 transformed with an H^+-ATPase carrying plasmid.
(§2) Transformed yeast cells, cultured on synthetic galactose (SG) agar medium supplemented with adenine 40 μg/mL and L-histidine 20 μg/mL (SGAH plates) for 3 days at 30°C, were suspended in H2O to 1x solution (OD660 = 1). Serial dilutions of 0.1, 0.01, 0.001 x of the cells were then prepared and spotted adjacently onto synthetic minimal media plates containing either 2% galactose or 2% glucose at pH 5.5 (SGAH or SDAH), incorporated with different concentrations of tested compound. Growth results were recorded after incubation for 3 days at 30°C. Minimum inhibitory concentrations (MIC values) were determined as the lowest concentrations of compounds where no visible growth of cells was observed.

[3] = set-up: method as in doi:10.1016/S0260-8774(02)00264-9; settings: cited from earlier work
[4] = molecular target: T1, A. thaliana PM H+-ATPase isoform AHA2 (Arabidopsis thaliana, UniProt P19456); assay: ATP hydrolysis (Baginski) assay on AHA2 in yeast plasma membranes; format: biochemical; settings: for effect on AHA2 ATPase activity: 50 μM compound; for slope factor H of inhibition curve, AHA2: variable slope fit
T1 construct: made in house; host or cells: S. cerevisiae strain RS-72, plasma membranes isolated
T1 sequence (P19456 1-948): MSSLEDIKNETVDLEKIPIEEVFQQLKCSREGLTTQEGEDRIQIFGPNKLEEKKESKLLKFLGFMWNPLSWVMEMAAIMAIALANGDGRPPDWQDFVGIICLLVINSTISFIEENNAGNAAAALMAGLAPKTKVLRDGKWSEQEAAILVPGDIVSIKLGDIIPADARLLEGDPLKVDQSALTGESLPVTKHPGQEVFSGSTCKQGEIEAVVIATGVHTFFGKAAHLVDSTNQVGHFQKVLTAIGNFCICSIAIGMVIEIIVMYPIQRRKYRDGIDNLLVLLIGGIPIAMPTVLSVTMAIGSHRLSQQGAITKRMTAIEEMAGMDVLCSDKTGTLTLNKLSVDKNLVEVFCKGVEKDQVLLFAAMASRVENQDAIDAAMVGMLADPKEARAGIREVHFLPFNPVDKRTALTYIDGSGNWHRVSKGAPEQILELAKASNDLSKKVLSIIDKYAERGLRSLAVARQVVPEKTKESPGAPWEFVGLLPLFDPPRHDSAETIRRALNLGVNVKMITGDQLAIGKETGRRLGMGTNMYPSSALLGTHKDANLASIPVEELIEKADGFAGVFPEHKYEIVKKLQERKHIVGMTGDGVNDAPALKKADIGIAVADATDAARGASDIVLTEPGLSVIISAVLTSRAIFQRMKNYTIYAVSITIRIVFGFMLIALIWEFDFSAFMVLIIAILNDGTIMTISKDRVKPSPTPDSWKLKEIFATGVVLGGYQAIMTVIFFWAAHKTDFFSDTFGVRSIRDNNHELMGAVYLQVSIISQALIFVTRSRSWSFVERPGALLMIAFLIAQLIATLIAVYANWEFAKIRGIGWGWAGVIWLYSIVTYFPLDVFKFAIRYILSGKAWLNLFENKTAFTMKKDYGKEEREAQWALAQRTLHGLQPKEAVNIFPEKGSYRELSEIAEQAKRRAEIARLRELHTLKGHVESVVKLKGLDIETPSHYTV
Source text: as §1
(§3) Yeast expressing AHA2 and Pma1p PM H^+-ATPase, respectively, were grown and harvested essentially as described. The cells were grown with glucose as carbon source in order to ensure than no endogenous plasma membrane H^+-ATPase is expressed. Microsomes and plasma membranes were isolated with all manipulations performed at 4°C. The final pellets containing the isolated membranes were collected and homogenized in GTED20 buffer (20% [v/v] glycerol, 10 mM Tris-HCl pH 7.5, 1 mM EDTA pH 8.0, 1 mM DTT) and stored at—80°C.
(§4) ATPase activity was determined by the Baginski assay as described previously using 2–5 μg of PM protein. The assays were performed at 30°C in 300 μL volumes with 3 mM ATP, pH 6.5, for determination of AHA2 activity, or with 5 mM ATP, pH 5.9 for Pma1p activity. The assay medium 20 mM MOPS, 50 mM KNO3 (to inhibit vacuolar ATPase), 5 mM NaN3 (to inhibit mitochondrial ATPase), 3.5 mM Na2MoO4 (to inhibit acid phosphatase), 1 mM Mg^2+ free in solution, and the indicated concentrations of MgATP. IC50 values for compound inhibition were determined by pre incubating PM with different concentrations of compound for 30 min at room temperature. For kinetics studies, the concentration of ATP was varied between 0.125 and 8 mM using an ATP regenerating system (5 mM phosphoenolpyruvate and 50 μg/mL pyruvate kinase).
(§5) The kinetic of inhibition for DMCM was determined by monitoring the rate of ATP hydrolysis reaction in the presence of increasing ATP substrate concentration. All kinetic data were gathered from experiments performed in the cuvette-based assay, as described above. The data were used in Hanes-Woolf analysis followed by fitting to the appropriate Michaelis-Menten inhibition equation (competitive, noncompetitive, uncompetitive, or mix type inhibition). The kinetic parameters Vmax, Km, Ki were estimated by nonlinear regression using GraphPad Prism 5.0 (GraphPad Software Inc.). For evaluation of inhibitor potency, IC50 values were calculated by using the equation: A=100/1+10^(LogIC50−LogC)×H where A is the observed % ATPase activity in the presence of compound; C, the compound concentration; IC50, the concentration that caused 50% inhibition of the maximal compound effect; and H, the slope factor.

[5] = tested on: S. cerevisiae RS-72 expressing AHA2; assay: Drop test, yeast RS-72 expressing AHA2; format: cell-based; settings: Saccharomyces cerevisiae, 72 h; no visible growth after 3 days at 30°C
Source text: as §1, §2

[6] = tested on: S. cerevisiae strain RS-72; assay: Drop test, yeast growth, all tested RS-72 strains; format: cell-based; settings: Saccharomyces cerevisiae, RS72, 72 h, read-out: Minimum inhibitory concentration (MIC), yeast growth
Source text: as §1, §2

[7] = molecular target: T2, yeast plasma membrane H+-ATPase Pma1p (Saccharomyces cerevisiae, UniProt P05030); assay: ATP hydrolysis (Baginski) assay on Pma1p in yeast plasma membranes; format: biochemical, S. cerevisiae; settings: for effect on Pma1p ATPase activity: 50 μM compound; for slope factor H of inhibition curve, Pma1p: variable slope fit
T2 construct: made in house; host or cells: S. cerevisiae strain RS-72 (chromosomal PMA1 under GAL1 promoter, repressed on glucose), plasma membranes isolated
T2 sequence (P05030 whole entry): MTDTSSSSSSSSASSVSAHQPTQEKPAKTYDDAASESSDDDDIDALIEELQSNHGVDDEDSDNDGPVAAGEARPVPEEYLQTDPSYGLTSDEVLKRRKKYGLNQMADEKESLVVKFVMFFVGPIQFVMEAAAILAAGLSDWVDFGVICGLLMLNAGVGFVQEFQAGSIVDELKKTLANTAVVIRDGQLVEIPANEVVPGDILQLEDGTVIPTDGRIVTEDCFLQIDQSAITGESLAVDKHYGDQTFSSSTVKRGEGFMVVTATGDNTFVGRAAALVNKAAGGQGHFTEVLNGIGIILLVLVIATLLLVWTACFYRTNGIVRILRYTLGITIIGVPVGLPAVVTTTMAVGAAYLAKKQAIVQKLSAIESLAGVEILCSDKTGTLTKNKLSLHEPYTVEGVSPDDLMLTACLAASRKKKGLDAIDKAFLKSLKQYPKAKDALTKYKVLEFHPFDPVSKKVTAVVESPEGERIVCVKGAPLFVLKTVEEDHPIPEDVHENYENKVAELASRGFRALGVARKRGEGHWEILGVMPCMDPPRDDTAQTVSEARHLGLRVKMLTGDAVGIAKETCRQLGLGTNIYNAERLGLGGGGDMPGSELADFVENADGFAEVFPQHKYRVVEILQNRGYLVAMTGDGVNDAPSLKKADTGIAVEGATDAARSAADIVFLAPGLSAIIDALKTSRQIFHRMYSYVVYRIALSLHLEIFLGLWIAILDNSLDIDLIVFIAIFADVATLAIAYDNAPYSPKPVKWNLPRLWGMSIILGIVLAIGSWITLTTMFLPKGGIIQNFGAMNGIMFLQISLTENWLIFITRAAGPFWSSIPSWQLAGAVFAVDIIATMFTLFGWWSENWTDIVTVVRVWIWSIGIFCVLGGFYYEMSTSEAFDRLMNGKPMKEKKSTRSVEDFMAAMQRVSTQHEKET
Source text: as §1, §3, §4, §5

SERCA1a (Ca2+-ATPase) = SERCA1a (Ca2+-ATPase) (Oryctolagus cuniculus, UniProt P04191); assay: SERCA ATP hydrolysis, NADH-coupled spectrophotometric assay; format: biochemical, rabbit; settings: purified leaky SERCA preparation
Sequence of SERCA1a (Ca2+-ATPase) (P04191 1-994 isoform P04191-2): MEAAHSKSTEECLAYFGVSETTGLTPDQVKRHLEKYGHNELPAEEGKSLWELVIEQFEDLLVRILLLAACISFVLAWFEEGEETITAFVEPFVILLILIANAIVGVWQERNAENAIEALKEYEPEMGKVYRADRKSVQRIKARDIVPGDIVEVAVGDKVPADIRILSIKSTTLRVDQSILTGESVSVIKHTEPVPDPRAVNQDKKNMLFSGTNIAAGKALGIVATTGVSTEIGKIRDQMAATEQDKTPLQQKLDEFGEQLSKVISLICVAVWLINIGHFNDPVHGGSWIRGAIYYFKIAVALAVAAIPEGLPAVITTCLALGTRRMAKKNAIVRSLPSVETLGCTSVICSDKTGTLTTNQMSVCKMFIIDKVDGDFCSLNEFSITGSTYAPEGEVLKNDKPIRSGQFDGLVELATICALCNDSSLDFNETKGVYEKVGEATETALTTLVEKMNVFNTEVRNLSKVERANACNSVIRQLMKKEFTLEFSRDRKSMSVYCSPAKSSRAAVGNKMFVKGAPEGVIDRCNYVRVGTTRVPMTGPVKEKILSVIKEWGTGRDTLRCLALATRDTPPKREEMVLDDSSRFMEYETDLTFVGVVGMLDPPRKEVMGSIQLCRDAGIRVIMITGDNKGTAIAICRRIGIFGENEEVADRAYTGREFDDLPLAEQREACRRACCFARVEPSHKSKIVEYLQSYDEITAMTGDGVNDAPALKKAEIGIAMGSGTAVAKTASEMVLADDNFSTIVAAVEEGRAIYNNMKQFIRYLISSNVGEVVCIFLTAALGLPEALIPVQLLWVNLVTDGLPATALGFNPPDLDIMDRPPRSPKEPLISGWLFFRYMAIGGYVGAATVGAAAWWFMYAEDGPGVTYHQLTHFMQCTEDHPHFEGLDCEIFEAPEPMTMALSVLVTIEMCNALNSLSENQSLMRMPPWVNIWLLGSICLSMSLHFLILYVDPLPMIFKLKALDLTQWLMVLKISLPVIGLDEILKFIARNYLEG
Source text: Sarcoplasmic reticulum vesicles, prepared from the leg and back muscles of rabbits, were used to obtain purified SERCA1a by extraction with a low concentration of deoxycholate according to established methods. The resulting membrane fragments were used for enzymatic assays to test the effect of the curcuminoid compounds on ATP hydrolysis spectrophotometrically by NADH oxidation with an ATP regenerating system.

[8] = set-up: method as in PMID 17999464; settings: due to fast metabolism; cited from earlier work
[9] = 3 mM ATP, pH 6.5, 30°C, 30 min preincubation, read-out: IC50, ATP hydrolysis, AHA2

SMILES	MIC [2]	effect on AHA2 ATPase activity [4]	IC50 [4, 9]	slope factor H of inhibition curve, AHA2 [4]	MIC [5]	MIC [6]	IC50 [7]	effect on Pma1p ATPase activity [7]	slope factor H of inhibition curve, Pma1p [7]	IC50 (SERCA1a (Ca2+-ATPase))	further results
COc1cc(/C=C/C(=O)/C=C(O)/C=C/c2ccc(O)cc2)ccc1O [DMCM (2), demethoxycurcumin]	40 to 50 µM (≈ 13.5 to 16.9 µg/mL)	significantly inhibited	18.7 ± 1 µM	2.4	20 to 30 µM (≈ 6.77 to 10.2 µg/mL)	~30 µM (≈ 10.2 µg/mL)	28.9 ± 1 µM	significantly inhibited	1.5	2.6 ± 0.9 µM	effect on H+ pumping activity [1]: dramatically reversed; chemical stability compared with CM [3]: more stable; AHA2 Vmax ([4]; 10 μM demethoxycurcumin): 0.46 ± 0.02 µM/mg/min; AHA2 Vmax ([4]; 20 μM demethoxycurcumin): 0.35 ± 0.01 µM/mg/min; AHA2 Vmax ([4]; 30 μM demethoxycurcumin): 0.19 ± 0.01 µM/mg/min; AHA2 Vmax ([4]; 40 μM demethoxycurcumin): 0.11 ± 0.01 µM/mg/min; fold lower IC50 value in comparison to CM or BDCM ([4]; AHA2 and Pma1p ATP hydrolysis): 2- to 4 fold; mode of inhibition versus ATP, AHA2 ([4]; DMCM 0-40 μM, ATP 0.125–8 mM): noncompetitive inhibitor; Ki ([4]; in vitro, noncompetitive model, ATP 0.125-8 mM): 14.7 ± 0.7 µM; Ki [7]: 27.7 ± 1.2 µM; Pma1p Vmax ([7]; 10 μM demethoxycurcumin): 1.00 ± 0.13 µM/mg/min; Pma1p Vmax ([7]; 20 μM demethoxycurcumin): 0.63 ± 0.05 µM/mg/min; Pma1p Vmax ([7]; 30 μM demethoxycurcumin): 0.48 ± 0.04 µM/mg/min; Pma1p Vmax ([7]; 40 μM demethoxycurcumin): 0.39 ± 0.04 µM/mg/min; mode of inhibition versus ATP, Pma1p ([7]; DMCM 0-40 μM, ATP 0.125–8 mM): noncompetitive inhibitor
COc1cc(/C=C/C(=O)/C=C(O)/C=C/c2ccc(O)c(OC)c2)ccc1O [CM (1), Curcumin]	60 to 70 µM (≈ 22.1 to 25.8 µg/mL)	significantly inhibited	60.4 ± 1.1 µM	~1	40 to 50 µM (≈ 14.7 to 18.4 µg/mL)	~50 µM (≈ 18.4 µg/mL)	76.1 ± 1 µM	significantly inhibited	~1	3.9 ± 0.4 µM	bioavailability [8]: poor bioavailability
O=C(/C=C(O)/C=C/c1ccc(O)cc1)/C=C/c1ccc(O)cc1 [BDCM (3), bisdemethoxycurcumin]	210 to 220 µM (≈ 64.7 to 67.8 µg/mL)	significantly inhibited	–	~1	200 to 210 µM (≈ 61.7 to 64.7 µg/mL)	–	–	significantly inhibited	~1	–	IC50 [4]: 76.7 ± 1.1 µM; MIC ([6]; approximate values, 3 days at 30°C): ~200 µM (≈ 61.7 µg/mL); IC50 ([7]; 5 mM ATP, pH 5.9, 30°C, 30 min preincubation, read-out: IC50, ATP hydrolysis, Pma1p): 90.6 ± 1.1 µM
